From patent US11767322B2 (BRISTOL-MYERS SQUIBB COMPANY, priority 2020, dated 2023)
Read-outs that look alike come from different tables or passages of the source.

How the values were obtained:
[1] = target: T1, His-GST-TVMV-hRIPK1(1-324) (Homo sapiens, UniProt Q13546); assay: biochemical; type: binding; details: HTRF probe displacement, 1 h at rt; read-out: RIPK1 IC50
T1 construct: The coding region of human RIPK1(1-324) flanked by NdeI site at 5′ end; made in house; host or cells: Spodoptera frugiperda Sf9 insect cells (baculovirus, Bac-to-Bac)
T1 sequence (Q13546 1-324): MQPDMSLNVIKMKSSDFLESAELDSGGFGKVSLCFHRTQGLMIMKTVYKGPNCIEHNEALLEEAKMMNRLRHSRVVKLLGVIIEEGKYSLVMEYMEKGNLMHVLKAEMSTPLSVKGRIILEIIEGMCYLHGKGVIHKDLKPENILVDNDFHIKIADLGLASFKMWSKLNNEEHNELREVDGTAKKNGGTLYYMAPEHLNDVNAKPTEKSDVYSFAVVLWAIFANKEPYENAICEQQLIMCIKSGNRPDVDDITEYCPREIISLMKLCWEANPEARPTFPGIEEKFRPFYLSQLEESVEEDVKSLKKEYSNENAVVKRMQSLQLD

[2] = system: MLKL phosphorylation in HT29-L23 human colorectal adenocarcinoma cells; assay: MLKL phosphorylation high-content assay; type: cell-based; details: necroptosis induced with TNFα, SMAC mimetic and Z-VAD, 6 h, maximal inhibition defined by Nec1s
[3] = target: GST-tagged PIK3Cδ in complex with PIK3R1 (Homo sapiens, UniProt O00329); assay: PI3Kδ HTRF binding assay; details: read-out: PIK3CD IC50
Chain of GST-tagged PIK3Cδ in complex with PIK3R1 (O00329 whole entry): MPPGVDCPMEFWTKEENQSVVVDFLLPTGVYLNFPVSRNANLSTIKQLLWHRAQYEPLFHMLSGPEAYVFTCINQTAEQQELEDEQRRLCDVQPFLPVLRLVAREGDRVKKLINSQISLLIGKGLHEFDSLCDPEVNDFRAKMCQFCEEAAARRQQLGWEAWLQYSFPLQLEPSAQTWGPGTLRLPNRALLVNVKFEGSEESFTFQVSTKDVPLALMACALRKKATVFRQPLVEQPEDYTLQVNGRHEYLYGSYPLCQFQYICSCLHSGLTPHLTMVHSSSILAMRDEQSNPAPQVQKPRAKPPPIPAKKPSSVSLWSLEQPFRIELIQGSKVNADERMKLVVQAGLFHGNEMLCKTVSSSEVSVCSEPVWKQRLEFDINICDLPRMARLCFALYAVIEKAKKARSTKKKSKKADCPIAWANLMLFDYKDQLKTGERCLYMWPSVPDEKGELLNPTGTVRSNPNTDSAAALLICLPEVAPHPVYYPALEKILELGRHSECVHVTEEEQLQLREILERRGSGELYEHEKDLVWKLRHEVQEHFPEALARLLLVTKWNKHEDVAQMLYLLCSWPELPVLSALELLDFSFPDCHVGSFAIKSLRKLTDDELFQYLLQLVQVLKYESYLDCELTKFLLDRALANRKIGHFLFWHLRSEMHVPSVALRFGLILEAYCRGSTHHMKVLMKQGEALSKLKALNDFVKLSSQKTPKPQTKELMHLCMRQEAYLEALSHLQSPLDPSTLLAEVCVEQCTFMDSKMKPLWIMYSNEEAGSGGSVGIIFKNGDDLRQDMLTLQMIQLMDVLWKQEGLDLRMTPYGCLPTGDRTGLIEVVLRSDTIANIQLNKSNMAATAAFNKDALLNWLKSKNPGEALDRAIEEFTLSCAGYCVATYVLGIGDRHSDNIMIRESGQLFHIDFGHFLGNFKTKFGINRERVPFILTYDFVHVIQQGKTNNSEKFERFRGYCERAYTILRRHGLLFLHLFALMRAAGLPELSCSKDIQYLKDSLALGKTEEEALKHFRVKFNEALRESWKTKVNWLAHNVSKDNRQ
Chain of GST-tagged PIK3Cδ in complex with PIK3R1 (P27986 whole entry partner): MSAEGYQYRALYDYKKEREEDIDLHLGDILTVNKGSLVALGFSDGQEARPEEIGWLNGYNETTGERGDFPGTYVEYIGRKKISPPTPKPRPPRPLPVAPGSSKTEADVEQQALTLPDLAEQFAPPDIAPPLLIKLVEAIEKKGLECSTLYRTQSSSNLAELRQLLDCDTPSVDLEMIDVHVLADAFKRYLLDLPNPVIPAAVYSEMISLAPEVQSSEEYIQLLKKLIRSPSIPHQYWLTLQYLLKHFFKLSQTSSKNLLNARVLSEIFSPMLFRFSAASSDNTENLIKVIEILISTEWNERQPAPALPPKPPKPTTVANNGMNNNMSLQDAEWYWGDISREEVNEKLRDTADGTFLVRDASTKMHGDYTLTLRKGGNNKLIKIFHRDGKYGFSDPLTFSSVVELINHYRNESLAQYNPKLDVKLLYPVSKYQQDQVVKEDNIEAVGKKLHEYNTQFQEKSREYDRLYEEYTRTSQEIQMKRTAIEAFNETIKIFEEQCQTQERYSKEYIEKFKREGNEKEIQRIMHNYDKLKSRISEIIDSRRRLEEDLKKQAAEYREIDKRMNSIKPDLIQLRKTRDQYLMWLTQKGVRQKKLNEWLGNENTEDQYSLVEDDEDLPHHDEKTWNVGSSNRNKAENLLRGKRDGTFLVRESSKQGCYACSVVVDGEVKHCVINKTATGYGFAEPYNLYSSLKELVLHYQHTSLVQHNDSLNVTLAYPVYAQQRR

[4] = read-out: pMLKL IC50, HT29-L23 cells
[5] = HTRF probe displacement, 1 h at rt
[6] = Homo sapiens, read-out: pMLKL IC50, HT29-L23 cells

Row | Molecule | IC50 [1] [nM] | IC50 [2, 4] [nM] | IC50 [3, 5] [nM] | IC50 [2, 6] [nM] | IC50 [3] [nM] | IC50 ([2]; HT29-L23 cells, read-out: pMLKL IC50) [nM]
1 | Cc1ccc(-c2ccn3nc(N)nc3c2)c(F)c1C(=O)NC(C)CC(O)c1ccc(F)cc1 (single isomer, unassigned) [Example 37, 3-(2-amino-[1,2,4]triazolo[1,5-a]pyridin-7-yl)-2-fluoro-N-(4-(4-fluorophenyl)-4-hydroxybutan-2-yl)-6-methylbenzamide] | 21 | 41 | > 15000 |  |  | 
2 | Nc1nc2cc(-c3ccc(F)c(C(=O)NCCC4(c5ccc(F)cc5)CC4)c3F)ccn2n1 [Example 249, 3-(2-amino-[1,2,4]triazolo[1,5-a]pyridin-7-yl)-2,6-difluoro-N-(2-(1-(4-fluorophenyl)cyclopropyl)ethyl)benzamide] | 2.1 |  | > 15000 | 10 |  | 
3 | Cc1ccc(-c2ccn3nc(N)nc3c2)c(F)c1C(=O)NCCC(O)c1cccc(Cl)c1 (stereo not drawn) [Example 43, 3-(2-amino-[1,2,4]triazolo[1,5-a]pyridin-7-yl)-N-(3-(3-chlorophenyl)-3-hydroxypropyl)-2-fluoro-6-methylbenzamide] | 3.2 |  |  | 2.6 | 11000 | 
4 | Nc1nc2cc(-c3ccc(Cl)c(C(=O)NCCC(O)c4ccc(Cl)cn4)c3F)ccn2n1 (single isomer, unassigned) [Example 82, 3-(2-amino-[1,2,4]triazolo[1,5-a]pyridin-7-yl)-6-chloro-N-(3-(5-chloropyridin-2-yl)-3-hydroxypropyl)-2-fluorobenzamide] | 27 |  | 12000 | 26 |  | 
5 | Cc1ccc(-c2ccn3nc(N)nc3c2)c(F)c1C(=O)NCCC(C)(O)c1ccc(Cl)cc1 (single isomer, unassigned) [Example 59, 3-(2-amino-[1,2,4]triazolo[1,5-a]pyridin-7-yl)-N-(3-(4-chlorophenyl)-3-hydroxybutyl)-2-fluoro-6-methylbenzamide] | 2.5 |  | > 15000 | 1.2 |  | 
6 | Nc1nc2cc(-c3ccc(Cl)c(C(=O)NCC(F)(F)C(O)c4ccc(OC(F)F)cc4)c3F)ccn2n1 (stereo not drawn) [Example 187, 3-(2-amino-[1,2,4]triazolo[1,5-a]pyridin-7-yl)-6-chloro-N-(3-(4-(difluoromethoxy)phenyl)-2,2-difluoro-3-hydroxypropyl)-2-fluorobenzamide] | 3.2 | 1.7 | > 15000 |  |  | 
7 | Cc1c(F)cc(-c2ccn3nc(N)nc3c2)cc1C(=O)NCC(F)(F)C(O)c1ccc(F)cc1 (single isomer, unassigned) [Example 231, 5-(2-amino-[1,2,4]triazolo[1,5-a]pyridin-7-yl)-N-(2,2-difluoro-3-(4-fluorophenyl)-3-hydroxypropyl)-3-fluoro-2-methylbenzamide] | 2 | 1.2 | > 15000 |  |  | 
8 | CCc1ccc(-c2ccn3nc(N)nc3c2)c(F)c1C(=O)NCC[C@H](O)c1ccc(Cl)cc1 [Example 155, (S)-3-(2-amino-[1,2,4]triazolo[1,5-a]pyridin-7-yl)-N-(3-(4-chlorophenyl)-3-hydroxypropyl)-6-ethyl-2-fluorobenzamide] | 2.7 |  | > 15000 | 0.6 |  | 
9 | Nc1nc2cc(-c3ccc(Cl)c(C(=O)NC[C@@H](F)[C@@H](O)c4ccc(F)cc4)c3F)ccn2n1 (single isomer, unassigned) [Example 298] | 2.9 |  | 8000 | 0.5 |  | 
10 | Cc1cc(F)c(-c2ccn3nc(N)nc3c2)cc1C(=O)NCCC(O)c1ccc(Cl)cn1 (single isomer, unassigned) [Example 7, 5-(2-amino-[1,2,4]triazolo[1,5-a]pyridin-7-yl)-N-(3-(5-chloropyridin-2-yl)-3-hydroxypropyl)-4-fluoro-2-methylbenzamide] | 10 | 13 | > 15000 |  |  | 
11 | Cc1ccc(-c2ccn3nc(N)nc3c2)c(F)c1C(=O)NCCC(c1ccccc1)C(F)(F)F (single isomer, unassigned) [Example 13, 3-(2-amino-[1,2,4]triazolo[1,5-a]pyridin-7-yl)-2-fluoro-6-methyl-N-(4,4,4-trifluoro-3-phenylbutyl)benzamide] | 0.6 | 27 | > 15000 |  |  | 
12 | [2H]C([2H])(CC([2H])(O)c1ccc(Cl)cc1)NC(=O)c1c(C)ccc(-c2ccn3nc(N)nc3c2)c1F (racemic) [Example 14, 3-(2-amino-[1,2,4]triazolo[1,5-a]pyridin-7-yl)-N-(3-(4-chlorophenyl)-3-hydroxypropyl-1,1,3-d3)-2-fluoro-6-methylbenzamide] | 1.1 |  | > 15000 | 1.1 |  | 
13 | Cc1ccc(-c2ccn3nc(N)nc3c2)c(F)c1C(=O)NCCC1(c2ccc(F)cc2)CC1 [Example 16, 3-(2-amino-[1,2,4]triazolo[1,5-a]pyridin-7-yl)-2-fluoro-N-(2-(1-(4-fluorophenyl)cyclopropyl)ethyl)-6-methylbenzamide] | 0.7 |  | > 15000 | 0.4 |  | 
14 | Nc1nc2cc(-c3ccc(Cl)c(C(=O)NC[C@H](F)[C@@H](O)c4ccc(F)cc4)c3F)ccn2n1 (single isomer, unassigned) [Example 296] | 15 |  | 10000 | 22 |  | 
15 | Cc1ccc(-c2ccn3nc(N)nc3c2)c(F)c1C(=O)NCCC(C)(C)c1ccc(Cl)cc1 [Example 15, 3-(2-amino-[1,2,4]triazolo[1,5-a]pyridin-7-yl)-N-(3-(4-chlorophenyl)-3-methylbutyl)-2-fluoro-6-methylbenzamide] | 1.5 |  | > 15000 | 1.7 |  | 
16 | Cc1ccc(-c2ccn3nc(N)nc3c2)c(F)c1C(=O)NC(C)CC(O)c1ccc(F)cc1 (single isomer, unassigned) [Example 39, 3-(2-amino-[1,2,4]triazolo[1,5-a]pyridin-7-yl)-2-fluoro-N-(4-(4-fluorophenyl)-4-hydroxybutan-2-yl)-6-methylbenzamide] | 163 | 397 | > 15000 |  |  | 
17 | Cc1ccc(-c2ccn3nc(N)nc3c2)c(F)c1C(=O)NCCC(C)(O)c1ccc(Cl)cc1 (single isomer, unassigned) [Example 60, 3-(2-amino-[1,2,4]triazolo[1,5-a]pyridin-7-yl)-N-(3-(4-chlorophenyl)-3-hydroxybutyl)-2-fluoro-6-methylbenzamide] | 1 | 1.3 | > 15000 |  |  | 
18 | Cc1ccc(-c2ccn3nc(N)nc3c2)c(F)c1C(=O)NC(CF)CC(O)c1ccc(F)cc1 (single isomer, unassigned) [Example 28, 3-(2-amino-[1,2,4]triazolo[1,5-a]pyridin-7-yl)-2-fluoro-N-(1-fluoro-4-(4-fluorophenyl)-4-hydroxybutan-2-yl)-6-methylbenzamide] | 5.1 | 4.9 | 8800 |  |  | 
19 | CCc1ccc(-c2ccn3nc(N)nc3c2)c(F)c1C(=O)NCC[C@@H](O)c1ccc(Cl)cc1 [Example 156, (R)-3-(2-amino-[1,2,4]triazolo[1,5-a]pyridin-7-yl)-N-(3-(4-chlorophenyl)-3-hydroxypropyl)-6-ethyl-2-fluorobenzamide] | 5.8 |  | > 15000 | 0.8 |  | 
20 | Nc1nc2cc(-c3ccc(Cl)c(C(=O)NCC[C@@H](O)c4ccc(Cl)cc4)c3F)ccn2n1 [Example 154, (R)-3-(2-amino-[1,2,4]triazolo[1,5-a]pyridin-7-yl)-6-chloro-N-(3-(4-chlorophenyl)-3-hydroxypropyl)-2-fluorobenzamide] | 4.7 |  | > 15000 | 1.4 |  | 
21 | Cc1ccc(-c2ccn3nc(N)nc3c2)c(F)c1C(=O)NC(C)CC(O)c1ccc(F)cc1 (single isomer, unassigned) [Example 38, 3-(2-amino-[1,2,4]triazolo[1,5-a]pyridin-7-yl)-2-fluoro-N-(4-(4-fluorophenyl)-4-hydroxybutan-2-yl)-6-methylbenzamide] | 4.7 | 6 | > 15000 |  |  | 
22 | Nc1nc2cc(-c3ccc(CF)c(C(=O)NCC(F)(F)[C@@H](O)c4ccc(F)cc4)c3F)ccn2n1 [Example 294, (S)-3-(2-amino-[1,2,4]triazolo[1,5-a]pyridin-7-yl)-N-(2,2-difluoro-3-(4-fluorophenyl)-3-hydroxypropyl)-2-fluoro-6-(fluoromethyl)benzamide] | 1.9 |  | > 15000 | 1.9 |  | 
23 | (S)-3-(2-amino-[1,2,4]triazolo[1,5-a]pyridin-7-yl)-6-cyclopropyl-N-(2,2-difluoro-3-(4-fluorophenyl)-3-hydroxypropyl)-2-fluorobenzamide [Example 304] | 4.8 |  |  |  | > 15000 | 2.8
24 | Cc1ccc(-c2ccn3nc(N)nc3c2)c(F)c1C(=O)NCC(F)(F)C(O)c1ccc(F)cn1 (stereo not drawn) [Example 269, 3-{2-amino-[1,2,4]triazolo[1,5-a]pyridin-7-yl}-N-[2,2-difluoro-3-(5-fluoropyridin-2-yl)-3-hydroxypropyl]-2-fluoro-6-methylbenzamide] | 4.6 | 1.5 | > 15000 |  |  | 
